Data set [1] has as its system W303-1a cells expressing Cdc13-hTERT-FLAG + hTR (active human telomerase). In words: Yeast growth rescue screen (time to reach OD595 of 0.62 relative to DMSO). It is filed as cell-based, S. cerevisiae. To be noted: for Z Score: z = (x − μ)/σ of normalized time difference over all compounds in the bioactive library. How it is done:
These 678 compounds were selected from a 50,000 member Maybridge library based upon a spectrum of growth inhibitory bioactivity in a drug pump-deficient yeast strain ([Ishizaki et al., 2010]). […] In each 96-well assay plate, growth of the query strain in the presence of compound (20 μM), beginning at the onset of the experimental growth phase (i.e., time course 2, from 43 hr onward), was normalized against DMSO treatment (Figures 2C and 2D; Figures S2D and S2E).
To conduct the HTS (Figure 2A), 98 μl (3 × 10^5 cells per milliliter) was dispensed into 96-well clear flat-bottomed microplates (Corning Costar) using a Biomek FX (Beckman Coulter). A small molecule bioactive library of 678 compounds was utilized for the screen, consisting of compounds selected from the Maybridge collection (Thermo Fisher Scientific). […] DMSO at 2% (v/v) and 20 μM cycloheximide (Sigma) final concentration were added as controls to each assay plate, into alternate wells in columns 1 and 12 using the Span 8 module of the Biomek FX. Nine plates were analyzed, 80 compounds per plate, with 16 wells for controls. After compound addition, the plates were sealed and followed for time course 1 (up to 39 hr) on a Sunrise plate reader (Tecan) at absorbance 595 nm, maintained at 30°C and shaking at 564 rpm. After time course 1, cells in assay plates were diluted to 3 × 10^5 cells per milliliter in fresh media containing galactose using the Biomek FX. The plates were preincubated in galactose-containing media at 30°C for 3 hr (to allow a period of recovery from the stationary phase in the absence of compound), 2 μl of each compound or control was added to plates as described earlier, returned to the plate readers, and followed for time course 2 (up to 86 hr), for a total of ∼128 elapsed hours.
Growth curves were analyzed using a growth curve analysis tool implemented in R. After smoothing of growth curves, the time required for cells induced with human telomerase to reach an OD595 of 0.62 in the presence of each compound during time course 2 was derived using a data-based approach ([Warringer and Blomberg, 2003]). The time to reach an OD595 of 0.62 for each compound was normalized to the average DMSO value from each assay plate (to arrive at a normalized value, x, for each compound) and used to generate heatmaps as shown in Figure 2C. Z scores were calculated based on the equation: z = (x − μ)/σ, where μ is the mean time difference for all compounds in the bioactive library and σ is the SD for all compounds in the bioactive library.

Data set [2] addresses T1, telomerase activity in crude HeLa cell extracts (Homo sapiens, UniProt O14746).
T1 construct: telomerase activity in crude HeLa cell extracts; endogenous in cells; host or cells: HeLa
The data set is described as follows: TRAP assay in crude HeLa cell extracts. It is filed as biochemical. How it is done:
As a control, we observed no inhibition of the Taq polymerase used for amplification of telomerase extension products in the TRAP (data not shown). In addition, as negative controls, two other compounds that were not identified as hits (SPB03922 and RH00646) were tested and confirmed to exert no effect upon telomerase activity in vitro (Figure 3B). Using a semiquantitative assay for the detection of telomerase elongation products (ELISA-TRAP) the in vitro half maximal inhibitory concentration (IC50) values of the compounds fell between 1 and 6.5 μM (Figures 3C and 3D). Similar IC50 values were also observed against purified recombinant murine telomerase (data not shown). These values are higher than that of BIBR1532 (IC50 = 0.1 μM) ([Damm et al., 2001]; [Pascolo et al., 2002]) but within a concentration range typical of first hits from commercial libraries. SEW05920, SPB03924, and CD11359 are heteroaromatic small molecules that differ structurally from BIBR1532 (Figures 3A and S2F).
Supplemental Experimental Procedures
Follow-up analysis of compounds identified in HTS
From the high-throughput analysis, 51 compounds with a neutral effect or that rescued the growth of strains expressing active human telomerase (relative to DMSO) were picked from the master HTS plates and re-analyzed (Figure 2C, and data not shown). These compounds were tested on a control strain, W303-1a expressing hTR and Cdc13-hTERT lacking the Cdc13 DBD, and 7 compounds were excluded from further analysis because they elicited a non-specific growth delay of the control strain. The remaining 44 compounds were subjected to secondary screens against the query strain expressing active human telomerase (n=2). Based on these results, twenty-eight compounds were purchased for further verification against the control and […]
(§1) Telomerase activity was assessed using the Telomere Repeat Amplification Protocol (TRAPeze, Millipore) or ELISA-TRAP (TeloTAGGG Telomerase PCR ELISA-PLUS, Roche Diagnostics) following manufacturers’ instructions. […]

Data set [3] addresses T2, purified recombinant human telomerase (Homo sapiens, UniProt O14746).
T2 construct: made in house
In words: Telomerase repeat amplification protocol (TRAP) assay, purified enzyme. It is filed as biochemical. To be noted: 200, 100, 20, 10 or 2 μM; 15 min preincubation. How it is done: Figure 3 Assessment of Human Telomerase Inhibition In Vitro (A) Chemical structures of BIBR1532 and hit compounds SEW05920, SPB03924, and CD11359. (B) Representative gel of the telomerase repeat addition protocol (TRAPeze, Millipore) after addition of RJC00417, SEW05920, SPB03922, and RH00646 to recombinant human telomerase purified in vitro ([Beattie et al., 1998]; [Oulton and Harrington, 2004]) (n = 3). Lanes 1–5, treatment with 200, 100, 20, 10, or 2 μM RJC00417; lanes 6–10, treatment with 200, 100, 20, 10, or 2 μM SEW05920; lanes 11–15, treatment with 200, 100, 20, 10, or 2 μM SPB03922; lanes 16–20, treatment with 200, 100, 20, 10, or 2 μM RH00646; lane 21, treatment with 2% v/v DMSO; lane 22, pretreatment with ribonuclease A. IC; internal PCR control (36 base pairs [bp]). (C) Representative gel of the relative telomerase activity (RTA) by ELISA-TRAP (TeloTAGGG Telomerase PCR ELISA-PLUS, Roche Diagnostics) of purified human telomerase upon incubation with BIBR1532 (lanes 1–4), SEW05920 (lanes 5–8), SPB03924 (lanes 11–14), CD11359 (lanes 15–18) (concentration indicated in micromolar), 2% v/v DMSO (lane 9), or heat (lane 10). IC; internal PCR control (216 bp). (D) Levels of RTA (%) after normalization to a 216 bp internal control, as shown in (C). Error bars indicate SD, n = 3. For synthesis of BIBR1532, see Figure S2.
As a control, we observed no inhibition of the Taq polymerase used for amplification of telomerase extension products in the TRAP (data not shown). […]
From the high-throughput analysis, 51 compounds with a neutral effect or that rescued the growth of strains expressing active human telomerase (relative to DMSO) were picked from the master HTS plates and re-analyzed (Figure 2C, and data not shown). […]
as §1

The next data set deals with pdr1DBD-cyc8 strain. In words: Growth of hyperpermeable yeast strain. To be noted: 0.03-1 μM, irrespective of human telomerase expression status.
The test system of another data set is W303-1a control strains. In words: Growth of control yeast strains. To be noted: W303-1a cells alone; 500, 150, 50, 10 or 1 μM. It is filed as cell-based, S. cerevisiae.
For data set [4], the target named is purified human telomerase. On the set-up: method as in Damm et al., 2001; Pascolo et al., 2002. As to conditions: human telomerase in vitro; ref Damm et al., 2001; Pascolo et al., 2002; cited from earlier work.

“Also recorded” adds a separate entry of the source.

In general, IC50 refers to the midpoint of a concentration-inhibition curve.

T1 sequence (O14746 whole entry): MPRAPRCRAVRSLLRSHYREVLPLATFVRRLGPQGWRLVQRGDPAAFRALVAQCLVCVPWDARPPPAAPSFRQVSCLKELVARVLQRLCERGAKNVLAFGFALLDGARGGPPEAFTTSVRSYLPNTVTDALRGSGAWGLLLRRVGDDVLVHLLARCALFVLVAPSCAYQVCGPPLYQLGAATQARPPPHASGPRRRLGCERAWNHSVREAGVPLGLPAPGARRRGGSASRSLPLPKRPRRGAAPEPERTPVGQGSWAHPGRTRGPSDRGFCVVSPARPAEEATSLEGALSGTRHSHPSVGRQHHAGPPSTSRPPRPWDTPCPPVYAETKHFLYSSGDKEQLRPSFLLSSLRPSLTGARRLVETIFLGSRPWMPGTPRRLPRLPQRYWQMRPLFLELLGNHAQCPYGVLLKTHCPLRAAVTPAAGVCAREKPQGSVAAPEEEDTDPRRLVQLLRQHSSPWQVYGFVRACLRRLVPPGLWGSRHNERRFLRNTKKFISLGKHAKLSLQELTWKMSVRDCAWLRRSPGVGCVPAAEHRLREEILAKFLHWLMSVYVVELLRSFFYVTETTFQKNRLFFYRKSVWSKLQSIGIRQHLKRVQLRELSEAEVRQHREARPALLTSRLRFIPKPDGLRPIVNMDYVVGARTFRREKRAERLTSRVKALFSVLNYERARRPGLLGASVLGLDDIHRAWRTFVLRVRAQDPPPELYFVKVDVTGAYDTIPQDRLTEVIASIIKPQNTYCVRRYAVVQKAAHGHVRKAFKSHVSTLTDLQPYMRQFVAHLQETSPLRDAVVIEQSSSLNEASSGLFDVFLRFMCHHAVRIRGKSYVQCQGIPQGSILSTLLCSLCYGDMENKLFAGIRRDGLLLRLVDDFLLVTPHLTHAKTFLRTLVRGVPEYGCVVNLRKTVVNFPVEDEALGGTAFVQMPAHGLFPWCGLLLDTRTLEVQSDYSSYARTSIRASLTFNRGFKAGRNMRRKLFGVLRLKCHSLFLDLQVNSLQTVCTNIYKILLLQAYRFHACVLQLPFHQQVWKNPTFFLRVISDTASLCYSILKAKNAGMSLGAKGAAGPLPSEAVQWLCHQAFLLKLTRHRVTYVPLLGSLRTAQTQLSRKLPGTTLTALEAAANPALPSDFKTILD
T1 sequence (O60832 whole entry partner): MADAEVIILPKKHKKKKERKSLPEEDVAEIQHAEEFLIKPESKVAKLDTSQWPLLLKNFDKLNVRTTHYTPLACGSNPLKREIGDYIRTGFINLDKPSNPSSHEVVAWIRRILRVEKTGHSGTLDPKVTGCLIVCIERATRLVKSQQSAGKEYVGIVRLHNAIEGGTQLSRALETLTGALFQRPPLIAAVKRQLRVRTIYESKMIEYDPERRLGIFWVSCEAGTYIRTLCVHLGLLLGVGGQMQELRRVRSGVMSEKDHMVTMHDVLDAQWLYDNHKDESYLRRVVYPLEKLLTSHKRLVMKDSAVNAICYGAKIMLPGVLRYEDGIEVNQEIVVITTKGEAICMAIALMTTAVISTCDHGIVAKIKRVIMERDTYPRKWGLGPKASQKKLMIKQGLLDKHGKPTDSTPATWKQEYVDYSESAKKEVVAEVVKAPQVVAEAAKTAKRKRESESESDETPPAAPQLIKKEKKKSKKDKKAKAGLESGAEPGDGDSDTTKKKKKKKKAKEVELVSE
T1 sequence (Q9NPE3 whole entry partner): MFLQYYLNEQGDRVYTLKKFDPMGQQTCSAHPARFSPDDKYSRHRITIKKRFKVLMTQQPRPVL
T1 sequence (Q9NX24 whole entry partner): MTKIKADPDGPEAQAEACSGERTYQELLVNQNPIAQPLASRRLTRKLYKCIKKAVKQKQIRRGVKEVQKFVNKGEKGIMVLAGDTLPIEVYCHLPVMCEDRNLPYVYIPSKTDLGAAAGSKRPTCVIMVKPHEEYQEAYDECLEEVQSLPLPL
T1 sequence (Q9NY12 whole entry partner): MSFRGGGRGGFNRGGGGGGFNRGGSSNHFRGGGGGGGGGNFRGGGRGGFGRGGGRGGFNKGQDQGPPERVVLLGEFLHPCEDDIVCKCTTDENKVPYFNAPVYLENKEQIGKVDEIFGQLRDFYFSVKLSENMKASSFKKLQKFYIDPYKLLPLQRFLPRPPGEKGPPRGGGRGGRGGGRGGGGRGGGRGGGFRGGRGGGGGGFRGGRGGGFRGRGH
T1 sequence (Q9BUR4 whole entry partner): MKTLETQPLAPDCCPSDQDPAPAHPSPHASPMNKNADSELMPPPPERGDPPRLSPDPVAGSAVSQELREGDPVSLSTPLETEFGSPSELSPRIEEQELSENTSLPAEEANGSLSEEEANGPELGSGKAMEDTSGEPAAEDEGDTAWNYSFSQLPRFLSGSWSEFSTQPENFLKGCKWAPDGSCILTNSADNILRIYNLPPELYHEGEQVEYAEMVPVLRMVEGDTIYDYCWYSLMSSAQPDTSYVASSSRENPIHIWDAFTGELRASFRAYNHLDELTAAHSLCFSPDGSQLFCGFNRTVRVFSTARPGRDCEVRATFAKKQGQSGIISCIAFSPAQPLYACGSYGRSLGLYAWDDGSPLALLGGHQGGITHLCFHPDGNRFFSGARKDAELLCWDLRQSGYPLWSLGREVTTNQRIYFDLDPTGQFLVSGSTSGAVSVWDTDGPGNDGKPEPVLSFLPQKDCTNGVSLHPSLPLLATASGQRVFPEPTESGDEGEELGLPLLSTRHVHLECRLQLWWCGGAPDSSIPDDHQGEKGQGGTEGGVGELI
T2 sequence (O14746 whole entry): as the sequence (O14746 whole entry) above

In the case of `N=C(N)Nc1nc(-c2cc(Cl)sc2Cl)cs1` [CD11359], in data set [1], the “Z Score” value worked out at 1.7. Moreover, the “inhibition of telomerase activity in crude HeLa cell extracts (TRAP)” value (from here on “inhibition of telomerase activity”) in data set [2] is on record as “dose-dependent inhibition”. In addition, the “inhibition of purified recombinant human telomerase (TRAP)” value in data set [3] was “dose-dependent inhibition”.

Consider `C/C(=C\C(=O)Nc1ccccc1C(=O)O)c1ccc2ccccc2c1` [BIBR1532, 2-[(E)-3-naphthalen-2-yl-but-2-enoylamino]-benzoic acid], for which, in data set [1] (500, 150, 50, 10 or 1 μM), the “effect upon growth of yeast expressing human telomerase” value was “had no effect”. Also, the “toxicity in hyperpermeable strain pdr1DBD-cyc8” value in the data set with pdr1DBD-cyc8 strain is “toxic; also recorded: cytotoxic across most concentrations”. Moreover, the “effect upon growth of control strains” value with W303-1a control strains was “had no effect”. Also, the concentration for half-maximal inhibition (IC50) in data set [4] was 100 nM.

Turning to `Cc1ccc(S(=O)(=O)NC(=O)Nc2ccc(Sc3ccccc3)nc2Sc2ccccc2)cc1` [SEW05920], in data set [1] (follow-up subscreens, re-plated from master HTS plate and repurchased compound), the “growth recovery in follow-up screens” value was approximately 8 h. In data set [1] (initial HTS, 20 μM), the “growth recovery in the initial HTS” value is “did not exhibit significant growth recovery”. The “Z Score” value in data set [1] was determined as 1.7. Moreover, in data set [2], the “inhibition of telomerase activity” value is reported as “dose-dependent inhibition”. The “inhibition of purified recombinant human telomerase (TRAP)” value in data set [3] is reported as “inhibited telomerase activity in vitro; also recorded: dose-dependent inhibition”.

In the case of `Cc1cc(C(=O)O/N=C(\N)CSc2ncccc2C(F)(F)F)no1` [SPB03924], the “Time (hr) Difference at an OD595 of 0.62 Relative to DMSO” value in data set [1] (compound 20 μM, time course 2, growth rescue of strain expressing active human telomerase) is 12 h. In addition, the “Z Score” value in data set [1] came out at 2.3. The “inhibition of telomerase activity” value in data set [2] is reported as “dose-dependent inhibition”. Besides, the “inhibition of purified recombinant human telomerase (TRAP)” value in data set [3] is recorded as “dose-dependent inhibition”.

The values are drawn from article PMC3650558, “A Yeast Chemical Genetic Screen Identifies Inhibitors of Human Telomerase” (Chemistry & Biology, 2013).
